Assay results as given in patent US20130344026A1, “Dimeric Smac Mimetics” (priority 2009, published 2013).
Where two headings read alike, the source gives them in different places.

Test system: PANC-1 cells
Test: cell viability assay in PANC-1 cells (compound alone, + 100 ng/ml TNFa, + 300 ng/ml TRAIL)
Assay type: cell-based
Conditions: Tables 6-10
[1] = Homo sapiens, PANC-1, compound alone, read-out: IC50 (μM) in cell viability assay in PANC-1 cells: Compound alone
[2] = with 100 ng/ml TNFa, read-out: IC50 (μM) in cell viability assay in PANC-1 cells: Compound + 100 ng/ml TNFa
[3] = with 300 ng/ml TRAIL, read-out: IC50 (μM) in cell viability assay in PANC-1 cells: Compound + 300 ng/ml TRAIL

Row | Structure (SMILES) | IC50 [1] [µM] | IC50 [2] [µM] | IC50 [3] [µM]
1 | CN[C@@H](C)C(=O)N[C@H](C(=O)N1CCC[C@H]1Cn1cnnc1Cc1ccccc1)[C@@H](C)OCC#CC#CCO[C@H](C)[C@H](NC(=O)[C@H](C)NC)C(=O)N1CCC[C@H]1Cn1cnnc1Cc1ccccc1 [Compound 80] | > 1 | > 1 | > 1
2 | CN[C@@H](C)C(=O)N[C@H](C(=O)N1CCC[C@H]1CN1CCC[C@H]1C(c1ccccc1)c1ccccc1)[C@@H](C)OCC#CC#CCO[C@H](C)[C@H](NC(=O)[C@H](C)NC)C(=O)N1CCC[C@H]1CN1CCC[C@H]1C(c1ccccc1)c1ccccc1 [Compound 81] | > 1 | 0.155 | 0.196
3 | CN[C@@H](C)C(=O)N[C@H](C(=O)N1CCC[C@H]1CN1C(=O)OC[C@@H]1Cc1ccccc1)[C@@H](C)OCC#CC#CCO[C@H](C)[C@H](NC(=O)[C@H](C)NC)C(=O)N1CCC[C@H]1CN1C(=O)OC[C@@H]1Cc1ccccc1 [Compound 82] | > 1 | 0.536 | 0.564
4 | CN[C@@H](C)C(=O)N[C@H](C(=O)N1CCC[C@H]1CN1CCC[C@H]1C(c1ccccc1)c1ccccc1)[C@@H](C)OCCCCCCO[C@H](C)[C@H](NC(=O)[C@H](C)NC)C(=O)N1CCC[C@H]1CN1CCC[C@H]1C(c1ccccc1)c1ccccc1 [Compound 83] | > 1 | 0.494 | 0.437
5 | CN[C@@H](C)C(=O)N[C@H](C(=O)N1CCC[C@H]1CN1C(=O)OC[C@@H]1Cc1ccccc1)[C@@H](C)OCCCCCCO[C@H](C)[C@H](NC(=O)[C@H](C)NC)C(=O)N1CCC[C@H]1CN1C(=O)OC[C@@H]1Cc1ccccc1 [Compound 84] | > 1 | > 1 | > 1
6 | CN[C@@H](C)C(=O)N[C@H](C(=O)N1CCC[C@H]1Cn1cnnc1CCc1ccccc1)[C@@H](C)OCC#CC#CCO[C@H](C)[C@H](NC(=O)[C@H](C)NC)C(=O)N1CCC[C@H]1Cn1cnnc1CCc1ccccc1 [Compound 85] | > 1 | > 1 | > 1
7 | CN[C@@H](C)C(=O)N[C@H](C(=O)N1CCC[C@H]1Cn1cnnc1CCc1ccccc1)[C@@H](C)OCCCCCCO[C@H](C)[C@H](NC(=O)[C@H](C)NC)C(=O)N1CCC[C@H]1Cn1cnnc1CCc1ccccc1 [Compound 86] | > 1 | > 1 | > 1
8 | CN[C@@H](C)C(=O)N[C@@H](CCCCCC[C@H](NC(=O)[C@H](C)NC)C(=O)N1c2ccccc2C[C@H]1C(=O)N[C@H](C)c1ccccc1)C(=O)N1c2ccccc2C[C@H]1C(=O)N[C@H](C)c1ccccc1 [Compound 92] | > 1 | 0.547 | 0.798
9 | CN[C@@H](C)C(=O)N[C@@H](CCCCCC[C@H](NC(=O)[C@H](C)NC)C(=O)N1c2ccccc2C[C@H]1C(=O)N[C@@H]1CCCc2ccccc21)C(=O)N1c2ccccc2C[C@H]1C(=O)N[C@@H]1CCCc2ccccc21 [Compound 93] | > 1 | 0.299 | 0.327
10 | CN[C@@H](C)C(=O)N[C@@H](CCCCCC[C@H](NC(=O)[C@H](C)NC)C(=O)N1CCCC[C@H]1C(=O)N[C@@H]1CCCc2ccccc21)C(=O)N1CCCC[C@H]1C(=O)N[C@@H]1CCCc2ccccc21 [Compound 94] | > 1 | 0.014 | 0.049
11 | CN[C@@H](C)C(=O)N[C@@H](CC#CC#CC[C@H](NC(=O)[C@H](C)NC)C(=O)N1Cc2ccccc2C[C@H]1C(=O)N[C@H](C)c1ccccc1)C(=O)N1Cc2ccccc2C[C@H]1C(=O)N[C@H](C)c1ccccc1 [Compound 95] | > 1 | > 1 | > 1
12 | CN[C@@H](C)C(=O)N[C@@H](CCCCCC[C@H](NC(=O)[C@H](C)NC)C(=O)N1Cc2ccccc2C[C@H]1C(=O)N[C@H](C)c1ccccc1)C(=O)N1Cc2ccccc2C[C@H]1C(=O)N[C@H](C)c1ccccc1 [Compound 96] | > 1 | 0.211 | 0.417
13 | CN[C@@H](C)C(=O)N[C@@H](CCCCCC[C@H](NC(=O)[C@H](C)NC)C(=O)N1C[C@@H](F)C[C@H]1C(=O)N[C@@H]1CCCc2ccccc21)C(=O)N1C[C@@H](F)C[C@H]1C(=O)N[C@@H]1CCCc2ccccc21 [Compound 100] | > 1 | 0.057 | 0.052
14 | CN[C@@H](C)C(=O)N[C@@H](CCCCCC[C@H](NC(=O)[C@H](C)NC)C(=O)N1CC[C@H]1C(=O)N[C@@H]1CCCc2ccccc21)C(=O)N1CC[C@H]1C(=O)N[C@@H]1CCCc2ccccc21 [Compound 102] | > 1 | 0.064 | 0.069
15 | CN[C@@H](C)C(=O)N[C@@H](CCCCCC[C@H](NC(=O)[C@H](C)NC)C(=O)N1C[C@@H](F)C[C@H]1C(=O)N[C@@H]1CCCc2ccccc21)C(=O)N1C[C@H](F)C[C@H]1C(=O)N[C@@H]1CCCc2ccccc21 [Compound 106] | > 1 | 0.006 | 0.006
16 | CN[C@@H](C)C(=O)N[C@@H](CCCCCC[C@H](NC(=O)[C@H](C)NC)C(=O)N1CC(F)(F)C[C@H]1C(=O)N[C@@H]1CCCc2ccccc21)C(=O)N1CC(F)(F)C[C@H]1C(=O)N[C@@H]1CCCc2ccccc21 [Compound 109] | > 1 | 0.004 | 0.003
17 | CN[C@@H](C)C(=O)N[C@H](C(=O)N1CCC[C@H]1C(=O)N[C@H](C)c1ccccc1)[C@H](C)NC(=O)CCCCC(=O)N[C@@H](C)[C@H](NC(=O)[C@H](C)NC)C(=O)N1CCC[C@H]1C(=O)N[C@H](C)c1ccccc1 [Compound 113] | > 1 | 0.208 | 0.203
18 | CN[C@@H](C)C(=O)N[C@H](C(=O)N1CCC[C@H]1C(=O)N[C@H](C)c1ccccc1)[C@H](C)NC(=O)c1ccc(C(=O)N[C@@H](C)[C@H](NC(=O)[C@H](C)NC)C(=O)N2CCC[C@H]2C(=O)N[C@H](C)c2ccccc2)cc1 [Compound 114] | > 1 | 0.199 | 0.184
19 | CN[C@@H](C)C(=O)N[C@H](C(=O)N1CCC[C@H]1C(=O)N[C@H](C)c1ccccc1)[C@H](C)n1cc(CCCc2cn([C@@H](C)[C@H](NC(=O)[C@H](C)NC)C(=O)N3CCC[C@H]3C(=O)N[C@H](C)c3ccccc3)nn2)nn1 [Compound 115] | > 1 | 0.057 | 0.063
20 | CN[C@@H](C)C(=O)N[C@H](C(=O)N1CCC[C@H]1Cn1nnnc1Sc1ccccc1)[C@@H](C)OCC#Cc1cccc(C#CCO[C@@H](C)[C@@H](NC(=O)[C@@H](C)NC)C(=O)N2CCC[C@@H]2Cn2nnnc2Sc2ccccc2)c1 [Compound 116] | > 1 | 0.0046 | 0.0059
21 | CN[C@@H](C)C(=O)N[C@@H](CCC(=O)Nc1ccc2c(c1)Cc1cc(NC(=O)CC[C@H](NC(=O)[C@H](C)NC)C(=O)N3CCC[C@H]3C(=O)N[C@@H]3CCCc4ccccc43)ccc1-2)C(=O)N1CCC[C@H]1C(=O)N[C@@H]1CCCc2ccccc21 [Compound 117] | > 1 | 0.02 | 0.025
22 | CN[C@@H](C)C(=O)N[C@H](C(=O)N1CCC[C@H]1C(=O)N[C@H]1c2ccccc2C[C@@H]1OC(=O)CCCC(=O)O[C@H]1Cc2ccccc2[C@@H]1NC(=O)[C@@H]1CCCN1C(=O)[C@@H](NC(=O)[C@H](C)NC)C(C)(C)C)C(C)(C)C [Compound 118] | > 1 | 0.0007 | 0.0008
23 | CN[C@@H](C)C(=O)N[C@H](C(=O)N1CCC[C@H]1C(=O)N[C@H]1c2ccccc2C[C@H]1OCC#CC#CCO[C@@H]1Cc2ccccc2[C@@H]1NC(=O)[C@@H]1CCCN1C(=O)[C@@H](NC(=O)[C@H](C)NC)C(C)(C)C)C(C)(C)C [Compound 119] | > 1 | 0.0014 | 0.0018
24 | CN[C@@H](C)C(=O)N[C@H](C(=O)N1CCC[C@H]1C(=O)N[C@H]1c2ccccc2C[C@H]1OCCCCCCO[C@@H]1Cc2ccccc2[C@@H]1NC(=O)[C@@H]1CCCN1C(=O)[C@@H](NC(=O)[C@H](C)NC)C(C)(C)C)C(C)(C)C [Compound 120] | > 1 |  | 
25 | CN[C@@H](C)C(=O)N[C@H](C(=O)N1CCC[C@H]1C(=O)N[C@H]1c2ccccc2C[C@@H]1OCC#CC#CCO[C@H]1Cc2ccccc2[C@@H]1NC(=O)[C@@H]1CCCN1C(=O)[C@@H](NC(=O)[C@H](C)NC)C(C)(C)C)C(C)(C)C [Compound 121] | > 1 | 0.0013 | 0.0015
26 | CN[C@@H](C)C(=O)N[C@H](C(=O)N1CCC[C@H]1C(=O)N[C@H]1c2ccccc2C[C@@H]1OCCCCCCO[C@H]1Cc2ccccc2[C@@H]1NC(=O)[C@@H]1CCCN1C(=O)[C@@H](NC(=O)[C@H](C)NC)C(C)(C)C)C(C)(C)C [Compound 122] | > 1 | 0.0015 | 0.0014
27 | CN[C@@H](C)C(=O)N[C@H](C(=O)N1CCC[C@H]1C(=O)N[C@H]1c2ccccc2C[C@@H]1NC(=O)CCCCC(=O)N[C@H]1Cc2ccccc2[C@@H]1NC(=O)[C@@H]1CCCN1C(=O)[C@@H](NC(=O)[C@H](C)NC)C(C)(C)C)C(C)(C)C [Compound 123] | > 1 | 0.069 | 0.067
28 | CN[C@@H](C)C(=O)N[C@H](C(=O)N1CCC[C@H]1C(=O)N[C@H]1c2ccccc2C[C@@H]1NC(=O)c1ccc(C(=O)N[C@H]2Cc3ccccc3[C@@H]2NC(=O)[C@@H]2CCCN2C(=O)[C@@H](NC(=O)[C@H](C)NC)C(C)(C)C)cc1)C(C)(C)C [Compound 124] | > 1 | 0.061 | 0.066
29 | CN[C@@H](C)C(=O)N[C@H](C(=O)N1C[C@@H](NC(=O)c2cc(C(=O)NCCN)cc(C(=O)N[C@H]3C[C@@H](C(=O)N[C@@H]4CCCc5ccccc54)N(C(=O)[C@@H](NC(=O)[C@H](C)NC)C(C)(C)C)C3)c2)C[C@H]1C(=O)N[C@@H]1CCCc2ccccc21)C(C)(C)C [Compound 126] | > 1 | 0.023 | 0.028
30 | CN[C@@H](C)C(=O)N[C@H](C(=O)N1C[C@@H](NC(=O)c2cc(C(=O)O)cc(C(=O)N[C@H]3C[C@@H](C(=O)N[C@@H]4CCCc5ccccc54)N(C(=O)[C@@H](NC(=O)[C@H](C)NC)C(C)(C)C)C3)c2)C[C@H]1C(=O)N[C@@H]1CCCc2ccccc21)C(C)(C)C [Compound 127] | > 1 | 0.032 | 0.028
